Entries after “also recorded” stand apart in the source; their conditions may differ.
Experiments:
ABAP1 = ABAP1 (Hordeum vulgare, UniProt Q9LLX3); assay: ABA binding assay with purified recombinant ABAP1; set-up: species or system barley; settings: analogs/precursors added at the same time as 3H+-ABA at different concentrations (20-5000)
Procedure: Other additions or changes to the incubation system are discussed in the figure legends. All binding assays were carried out at a final volume of 150 μL at 4° C. for 1 hour. The mixture was then rapidly filtered through a nitrocellulose membrane, washed with 5 mL, of cold 0.5× binding buffer by rapid filtration, dried in air and counted in a scintillation counter (Wallac 1414 WinSpectral v1.40). […] The DCC binding mixture was maintained for 15 minutes on ice before centrifugation to precipitate DCC. The resulted supernatant was then counted in a scintillation counter to determine the binding activity. […] Heat denatured ABAP1 protein was used to determine the protein nature of the ABAP1 and BSA was used as a control. All binding studies were carried out using three different protein purifications with triplicate assays for each purification. […] Binding was represented as the number of moles of ^3H^+-ABA per mole of ABAP1 protein.

α-amylase activity = α-amylase activity in bombarded barley aleurones; type: cell-based; settings: em and ABAP1 bombarded aleurones
Procedure: A similar experiment was conducted with α-amylase activity to confirm if ABAP1 is involved in another signal transduction pathway. α-amylase activity was measured after ABA, PBI51 and GA were added to the em and ADAPT bombarded barley aleurones.

em promoter = em promoter driven GUS expression in bombarded barley aleurone layers; type: cell-based; settings: in the presence of the added substance
Text: The studies examined the effector and reporter constructs, at a 1:1 ratio, introduced to barley aleurone layers by gold particle bombardment. The bombardment consisted of two trials: the first trial was a bombardment of em promoter only; the second trial was a bombardment of em promoters treated with ABAP1.

FCA protein = target: T1, FCA protein (Arabidopsis thaliana, UniProt O04425); assay: ABA binding assay with purified recombinant FCA; set-up: Kd; other: analog added in higher concentrations than 3H+-ABA (20-5000 nM); other: Scatchard analysis, r^2=0.88; other: in presence of 5 μM unlabelled (+)-ABA; pH range of maximum; fused on or other part: GST fused on for purification; settings: analog added in higher concentrations than 3H+-ABA (20-5000 nM)
T1 sequence (O04425 1-747 isoform O04425-1): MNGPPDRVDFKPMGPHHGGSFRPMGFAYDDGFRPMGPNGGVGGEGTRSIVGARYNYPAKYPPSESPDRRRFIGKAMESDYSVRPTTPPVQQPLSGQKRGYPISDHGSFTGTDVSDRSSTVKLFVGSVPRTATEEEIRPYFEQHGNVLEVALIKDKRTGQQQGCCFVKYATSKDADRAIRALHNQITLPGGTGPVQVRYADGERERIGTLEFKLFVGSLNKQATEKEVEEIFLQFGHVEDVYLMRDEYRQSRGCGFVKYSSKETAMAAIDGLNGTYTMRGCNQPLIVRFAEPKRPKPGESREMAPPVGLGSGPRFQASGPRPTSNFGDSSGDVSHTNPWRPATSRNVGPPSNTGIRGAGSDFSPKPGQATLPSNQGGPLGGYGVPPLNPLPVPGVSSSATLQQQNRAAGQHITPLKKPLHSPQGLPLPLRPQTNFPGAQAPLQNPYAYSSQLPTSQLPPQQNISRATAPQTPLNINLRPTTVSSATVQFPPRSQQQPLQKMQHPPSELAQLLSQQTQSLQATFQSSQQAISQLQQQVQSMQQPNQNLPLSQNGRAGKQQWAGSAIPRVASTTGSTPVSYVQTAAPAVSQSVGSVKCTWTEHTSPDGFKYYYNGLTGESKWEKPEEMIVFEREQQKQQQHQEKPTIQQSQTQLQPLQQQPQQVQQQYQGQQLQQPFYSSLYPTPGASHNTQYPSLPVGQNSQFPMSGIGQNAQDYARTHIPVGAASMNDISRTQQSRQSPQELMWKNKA
Procedure: […] The mixture was then rapidly filtered through a nitrocellulose membrane, washed with 0.5× binding buffer, air dried and counted in a scintillation counter (Wallac 1414 WinSpectral v1.40). Heat denatured FCA protein was used to used determine the protein nature of the FCA and BSA was used as a control. All binding studies were carried out using three different GST affinity chromatography protein purifications with triplicate assays for each purification. […] Specific binding was calculated by taking the difference for assays with only ^3H^+-ABA (total binding) and assays that also contained 5 μM (±)-ABA added at the same time as ^3H^+-ABA (non-specific binding). Binding was represented as the number of moles of ^3H^+-ABA per mole of FCA protein.

FCA/FY interaction = assay: GST pull-down of FCA/FY interaction in the presence of ABA; type: binding, Arabidopsis; settings: FCA pre-bound with ABA for 30 min
Procedure: All in vitro translation and GST pull-down assays were carried out as described by supplier's protocols (Promega, Madison, Wis.) with modifications^S and as follows. For GST in vitro pull-down assays, 15 μL GST affinity resin was incubated with 250 μL FCA clear lysate, pelleted and the complex blocked and washed with IP buffer as described^S. For the determination of the amount of FCA bound to GST resin, the pellet was resuspended with 200 μL of 15 mM GSH to elute FCA and the supernatant was recovered by centrifugation. FY protein to be tested for interaction with the GST-FCA fusion protein was synthesized from a plasmid template and labeled with [^35S]-methionine using the T7 TNT coupled Transcription/Translation System (Promega). Twenty μL of FY labeled protein and 180 μL of interaction buffer (12.5 mM Tris-HCl, pH 7.3 containing 5 mM KCl, 1 mM MgCl2, and 100 mM NaCl) were used to resuspend the GST:FCA after the final wash. The protein binding/interaction reaction was carried out for 90 minutes at 4° C. with continuous gentle mixing. The newly formed complex was then washed three times with 500 μL of IP wash buffer. After the final wash, the complex was resuspended, first with 10 μL of 1 5 mM GSH to facilitate the dissociation of interacted proteins from GST resin and then 10 μL of 2×SDS-PAGE sample buffer was added to the mixture and boiled for 5 minutes for complete elution of the proteins from the agarose beads. The beads were pelleted by centrifugation and supernatant was loaded on a 12% SDS-PAGE gel. The gel was dried and exposed to Kodak X-ray film for 18 hours at −70° C. and film was developed for the detection of labelled proteins.
FCA was bound with […] for 30 minutes at which time the FCA/FY translated product was added to the incubation mixture. The interaction between FCA/FY was carried out in the presence of either (−)- or (+)-ABA in binding buffer as described above. Released proteins were separated on SDS-PAGE and labelled proteins were detected as described above. FCA-WW-FY was used as a control.

[1] = ABA binding of ABAP1 trypsin fragments; set-up: species or system barley; settings: for ABA binding molar ratio / affinity: trypsin fragments compared with full-length ABAP1
Text: It is to be noted that the nucleotide fragment sequence SEQ ID NO: 12 corresponds to nucleotides 350 through 951 of the nucleotide sequence listing set forth in SEQ ID NO: 9, and that the amino acid sequence SEQ ID NO: 11 encoded by the nucleotide fragment sequence SEQ ID NO: 12 corresponds to amino acids 112 though 309 of the ABAP1 protein (SEQ. ID NO: 10). Mutation analysis can be used to determine the specific residues involved in […] binding. Those skilled in these arts will understand that the ABA-binding capacity within a recipient plant tissue or seed can be modulated by constructing a nucleotide molecule by first fusing the T-20 coding sequence (SEQ ID NO: 12) with a suitable regulatory nucleotide sequence selected for over-expression or for under-expression of the T-20 coding sequence, then stably introducing the T-20 nucleotide molecule into the genome of a recipient cell from a seed-producing plant, culturing the recipient cell into a functional whole plant and then further propagating the plant to produce mature recipient seeds. A suitable forward […] for the T-20 coding sequence is set forth in the sequence listing identified as SEQ ID NO: 15. A suitable reverse primer for the T-20 coding sequence is set forth in the sequence listing identified as SEQ ID NO: 16.

ABAP1, sequence (Q9LLX3 entry or part of it): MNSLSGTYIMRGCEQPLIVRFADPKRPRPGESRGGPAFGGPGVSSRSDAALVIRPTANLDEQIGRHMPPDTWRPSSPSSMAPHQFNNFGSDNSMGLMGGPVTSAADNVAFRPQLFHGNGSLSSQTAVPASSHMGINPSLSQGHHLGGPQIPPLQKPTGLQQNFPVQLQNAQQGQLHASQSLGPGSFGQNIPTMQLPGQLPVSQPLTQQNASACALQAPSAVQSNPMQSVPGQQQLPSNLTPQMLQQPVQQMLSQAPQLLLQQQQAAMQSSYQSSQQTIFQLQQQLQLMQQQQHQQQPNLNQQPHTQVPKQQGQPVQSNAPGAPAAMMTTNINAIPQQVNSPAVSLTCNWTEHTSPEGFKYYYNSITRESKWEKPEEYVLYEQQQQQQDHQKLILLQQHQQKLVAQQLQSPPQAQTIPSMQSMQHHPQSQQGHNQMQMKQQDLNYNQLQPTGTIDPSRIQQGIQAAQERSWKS

CC1=CC(=O)CC(C)(C)[C@@]1(O)/C=C/C(C)=C\CO [(+) ABA-alcohol]
displacement of 3H+-ABA bound to ABAP1 (competition) (ABAP1): able to displace
displacement of 3H+-ABA bound to ABAP1 (competition) (ABAP1; listed as ABA alcohol): did competitively inhibit binding of ABA to ABAP1 to some extent

CC1=CC(=O)CC(C)(C)[C@@]1(O)/C=C/C(C)=C\C=O [(+) ABA-aldehyde]
displacement of 3H+-ABA bound to ABAP1 (competition) (ABAP1): able to displace
displacement of 3H+-ABA bound to ABAP1 (competition) (ABAP1; listed as ABA aldehyde): did competitively inhibit binding of ABA to ABAP1 to some extent

CC1=CC(=O)CC(C)(C)[C@@]1(O)/C=C/C(C)=C\C(=O)O[C@@H]1O[C@H](CO)[C@@H](O)[C@H](O)[C@H]1O [ABA-GE, (+) abscisic acid-glucose ester]
displacement of 3H+-ABA bound to ABAP1 (competition) (ABAP1): incapability

CC(=C/C(=O)O)/C=C/[C@]1(O)[C@@]2(C)CO[C@]1(C)C[C@@H](O)C2 [DPA, dihydrophaseic acid]
displacement of 3H+-ABA bound to ABAP1 (competition) (ABAP1): incapability

C=C1C[C@]23C[C@@]1(O)CC[C@H]2[C@@]12C=C[C@H](O)[C@@](C)(C(=O)O1)[C@H]2[C@@H]3C(=O)O [GA, gibberellic acid]
α-amylase activity (α-amylase activity): did not affect any reduction
activation of the em promoter by ABAP1 (em promoter): reduced

CC(=C/C(=O)O)/C=C/[C@]1(O)[C@@]2(C)CO[C@]1(C)CC(=O)C2 [PA, phaseic acid]
displacement of 3H+-ABA bound to ABAP1 (competition) (ABAP1): incapability

C/C(C#C[C@]1(O)[C@H](C)CC(=O)CC1(C)C)=C/CO [PBI51]
α-amylase activity (α-amylase activity): decreased
activation of the em promoter by ABAP1 (em promoter): reduced

CC(C=CC1(O)C(C)=CC(=O)CC1(C)C)=CC(=O)O (stereo not drawn) [trans-ABA]
displacement of 3H+-ABA bound to ABAP1 (competition) (ABAP1): incapability; also recorded: neither (−)-ABA nor trans-ABA compete
displacement of 3H+-ABA binding to FCA (FCA protein): Virtually no or very little displacement

(−)-ABA
inhibition of FCA/FY interaction (FCA/FY interaction): did not significantly inhibit
displacement of 3H+-ABA bound to ABAP1 (competition) (ABAP1): neither (−)-ABA nor trans-ABA compete
displacement of 3H+-ABA bound to ABAP1 (competition) (ABAP1; listed as (−) ABA): incapability
displacement of 3H+-ABA binding to FCA (FCA protein): Virtually no or very little displacement

B1: 10 kDa fragment: trypsin fragment of ABAP1 containing HR2 only, SEQ ID NO: 13 (protein)
chain: SAVQSNPMQSVPGQQQLPSNLTPQMLQQPVQQMLSQAPQLLLQQQQAAMQSSYQSSQQTIFQLQQQLQLMQQQQHQQQPNLNQQPHTQVPK
modifications: Hordeum, vulgare subsp. vulgare
ABA-binding affinity relative to 20 kDa fragment and full-length protein [1]: less than 50%
ABA binding molar ratio / affinity [1]: slight binding affinity

B2: 20 kDa fragment: trypsin fragment of ABAP1 with HR1 and HR2 regions, SEQ ID NO: 11 (protein)
chain: PQLFHGNGSLSSQTAVPASSHMGINPSLSQGHHLGGPQIPPLQKPTGLQQNFPVQLQNAQQGQLHASQSLGPGSFGQNIPTMQLPGQLPVSQPLTQQNASACALQAPSAVQSNPMQSVPGQQQLPSNLTPQMLQQPVQQMLSQAPQLLLQQQQAAMQSSYQSSQQTIFQLQQQLQLMQQQQHQQQPNLNQQPHTQVPK
modifications: Hordeum, vulgare subsp. vulgare
ABA binding molar ratio / affinity [1]: about the same molar ratio

Reference: US20080235828A1 (University of Manitoba, priority 2004, published 2008)
